Data taken from patent US4689333A, “2-(2-pyridylmethylthio (sulfinyl)) benzimidazoles” (Takeda Chemical Industries, Ltd., priority 1984, dated 1987).

Legend:
[1] = Anti-ulcer action: indomethacin-induced gastric antral ulcer in rats; assay type: in vivo, Male Sprague-Dawley rats; conditions: Rattus norvegicus, po, 5 h, p.o., 30 min before indomethacin 30 mg/kg s.c., 6 rats per group, doses 1, 3, 10 and 30 mg/kg, read-out: Anti-ulcer action ID50
Text: As the models of gastrointestinal ulcers, restraint and water-immersion stress-induced ulcer, indomethacin-induced ulcer and ethanol-induced gastric mucosal lesions have been used. However, as a model mimicking human gastric ulcer, indomethacin-induced gastric antral ulcer was reported in "Gastroenterology" (Satoh et al. 81, p. 719, 1981), which is considered to be of value as an experimental model. Therefore, the following are data of anti-ulcer actions of the object compounds (I) and of some representable known compounds, on the ulcer model in the above-mentioned literature reference.
Male Sprague-Dawley rats of 7-weeks old were fasted for 24 hours. These animals were administered test compounds into stomach by using a gastric tube. After 30 minutes, indomethacin, 30 mg/kg subcutaneously, was administered. During 30-90 minutes after the administration of indomethacin, these animals had free access to chow pellets (Japan Clea, CE-2). At 5 hours after the administration of indomethacin, 1 ml of 1% Evans blue was injected to the animals via the tail vein, followed by sacrificing these animals with carbon dioxide gas. The stomach was removed together with the lower part of esophagus and the duodenum. The esophagus was clipped, 10 ml of 1% formalin solution was instilled into the stomach from the duodenum, and then the duodenum was clipped. The whole stomach was immersed in 1% formalin solution. About 15 minutes later, the stomachs were opened along the greater curvature. The area of the lesions which occurred in the gastric antral mucosa was measured under a dissecting microscope with a square-grid eye piece (x10). The sum total of the individual lesions in each animal was measured, and the average value per group was calculated. Based on the difference between the average value of each group and that of the control group, the inhibition rate was determined. The test compound and indomethahacin were suspended in a 5% gum arabic solution, respectively and administered in a volume of 2 ml/kg.
^(a) Using 6 rats per group, each of the test compounds was
administered in a dose of 1, 3, 10 and 30 mg/kg to determine ID50.

[2] = Toxicity, oral administration to mice; assay type: in vivo; conditions: even in a dose of 2000 mg/kg

Compound | ED50 [1] [mg/kg] | fatal effect on oral administration [2]
Cc1c(OCC(F)(F)C(F)(F)F)ccnc1CSc1nc2ccccc2[nH]1 [2-[3-methyl-4-(2,2,3,3,3-pentafluoropropoxy)-pyrid-2-yl]methylthiobenzimidazole] | 3.7 | –
Cc1c(OCC(F)(F)C(F)(F)F)ccnc1C[S+]([O-])c1nc2ccccc2[nH]1 (centres unmarked) [2-[3-methyl-4-(2,2,3,3,3-pentafluoropropoxy)pyrid-2-yl]methylsulfinylbenzimidazole] | < 1 | no fatal effect
Cc1c(OCC(F)(F)C(F)F)ccnc1C[S+]([O-])c1nc2ccccc2[nH]1 (centres unmarked) | < 1 | –
[O-][S+](Cc1cc(OCC(F)(F)C(F)F)ccn1)c1nc2ccccc2[nH]1 (centres unmarked) | 1.3 | –
[O-][S+](Cc1cc(OCC(F)(F)C(F)(F)F)ccn1)c1nc2ccccc2[nH]1 (centres unmarked) | 1.3 | –
[O-][S+](Cc1cc(OCC(F)(F)F)ccn1)c1nc2ccccc2[nH]1 (centres unmarked) [R^1=H, R^2=H, R^3=H, R^4=CH2 CF3, n=1] | 2.4 | –
Cc1c(OCC(F)(F)F)ccnc1C[S+]([O-])c1nc2ccccc2[nH]1 (centres unmarked) [R^1=H, R^2=CH3, R^3=H, R^4=CH2 CF3, n=1, 2-[3methyl-4-(2,2,2-trifluoroethoxy)-pyrid-2-yl]methylsulfinylbenzimidazo] | < 1 | –
